For test [1], the target named is T1, Tyrosinase (Agaricus bisporus) (UniProt O42713).
T1 sequence (whole entry): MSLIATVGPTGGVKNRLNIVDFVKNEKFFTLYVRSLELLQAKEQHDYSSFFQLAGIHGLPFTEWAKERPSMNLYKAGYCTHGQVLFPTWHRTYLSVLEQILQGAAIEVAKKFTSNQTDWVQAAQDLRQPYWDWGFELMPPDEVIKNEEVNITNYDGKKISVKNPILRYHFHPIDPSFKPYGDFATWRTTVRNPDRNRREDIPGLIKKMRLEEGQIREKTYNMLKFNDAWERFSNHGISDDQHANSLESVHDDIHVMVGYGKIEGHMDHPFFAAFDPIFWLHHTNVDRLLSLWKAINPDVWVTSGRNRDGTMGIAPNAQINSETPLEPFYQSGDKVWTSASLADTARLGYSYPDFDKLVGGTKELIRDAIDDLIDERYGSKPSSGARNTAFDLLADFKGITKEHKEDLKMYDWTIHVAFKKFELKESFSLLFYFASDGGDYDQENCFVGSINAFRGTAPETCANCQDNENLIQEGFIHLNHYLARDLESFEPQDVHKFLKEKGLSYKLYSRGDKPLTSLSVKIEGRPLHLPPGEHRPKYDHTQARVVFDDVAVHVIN
The test is described as follows: Inhibition of mushroom tyrosinase at 0.19 mM using L-DOPA as substrate after 5 mins by spectrophotometric analysis relative to control.

Test [2] has as its target T1, Tyrosinase (Agaricus bisporus). Nature of the test: Inhibition of mushroom tyrosinase at 0.11 mM using L-DOPA as substrate after 5 mins by spectrophotometric analysis relative to control.
For test [3] the target is unchanged. Nature of the test: Inhibition of mushroom tyrosinase at 0.18 mM using L-DOPA as substrate after 5 mins by spectrophotometric analysis relative to control.

We go through 3 compounds from ChEMBL document CHEMBL4130475, “Lorneic Acid Analogues from an Endophytic Actinomycete” (J Nat Prod, 2017).

`CC/C=C/c1cc(C)ccc1/C=C/CCCC(=O)O`: the inhibition (usually the percentage by which the read-out fell short of the control) in test [1] was 12.9%.

Consider `CCCC(SSCC(NC(C)=O)C(=O)O)c1cc(C)ccc1/C=C/CCCC(=O)O` (stereo not drawn), for which the inhibition in test [2] came to 18.9%.

The compound `CCCC(O)c1cc(C)ccc1/C=C/CCCC(=O)O` (stereo not drawn) returned an inhibition in test [3] of 27%.
